The values below come from patent US7459444B2, “Inhibitors of chymase” (Janssen Pharmaceutica N.V., priority 2004, dated 2008).

In experiment [1] the test system is Ascaris suum antigen-induced asthmatic response in conscious sheep. Kind of experiment: Ascaris suum antigen-induced asthmatic response in conscious sheep. The experiment is classed as in vivo. Particulars: for early airway response (0-2 h after antigen challenge) / late airway response (6-8 h after antigen challenge): n=2 sheep/group. On the procedure: The efficacy of Compound 17 for the treatment of asthma was evaluated in a validated model of Ascaris suum antigen-induced asthmatic response in conscious sheep (Abraham, W. M., Pharmacology of allergen-induced early and late airway responses and antigen-induced airway hyperresponsiveness in allergic sheep, Pulmonary Pharmacology, 1989, 2, 33-40).
Baseline (BSL) dose response curves to aerosol carbachol were obtained from historical control responses prior to antigen challenge. Baseline values of specific lung resistance (SRL) were obtained and the sheep were then given a specified amount (mg) of the test compound as an inhaled aerosol or as a oral dose at a specified time before antigen challenge. Post-drug measurements of SRL were obtained and the sheep were then challenged with Ascaris suum antigen. Measurements of SRL were obtained immediately after challenge, hourly from 1-6 h after challenge and on the half-hour from 6½-8 h after challenge. Measurements of SRL were obtained 24 h after challenge followed by a 24 h post-challenge with carbachol to measure airway hyperreactivity.
Compound 17 was administered as an aerosol at 4.5 mg/dose (ca. 0.1 mg/Kg/dose, based on a 45 Kg sheep), twice-a-day (BID) for three consecutive days, followed by a dose on day 4, 0.5 h prior to antigen challenge. Ascaris suum antigen challenge was given at the zero time point.
Compound 17 was administered as an oral solution at 15 mg/Kg/dose, twice-a-day (BID) for three consecutive days, followed by a dose on day 4, 2 h prior to antigen challenge. Ascaris suum antigen challenge was given at the zero time point.

Experiment [2] deals with angiotensin II activity. The following applies: human vascular extracts; cited from earlier work.
The mark [3] stands for this setting: aerosol 4.5 mg/dose BID for three days plus dose on day 4, 0.5 h prior to antigen challenge, FIG. 1.
Where [4] appears, read: oral solution 15 mg/Kg/dose BID for three days plus dose on day 4, 2 h prior to antigen challenge, FIG. 3.

As to `CP(=O)(O)C(C(=O)N/C=C/c1ccc(F)c(F)c1)c1csc2ccc(Cl)cc12` (stereo not shown) [Cpd 17], the “early airway response (0-2 h after antigen challenge)” value in experiment [1] (setting [3]) and in experiment [1] (setting [4]) was “unchanged” each time. Also, the “late airway response (6-8 h after antigen challenge)” value in experiment [1] (setting [3]) and in experiment [1] (setting [4]) was “completely blocked” each time. Besides, the “delayed airway hyperreactivity at 24 h post antigen challenge (carbachol challenge)” value in experiment [1] (aerosol administration, FIG. 2) is given as “completely blocked”; in experiment [1] (oral administration, FIG. 4) it was “completely blocked”.

As to `NCCCC[C@H](N[C@@H](CCc1ccccc1)C(=O)O)C(=O)N1CCC[C@H]1C(=O)O` [lisinopril], the “angiotensin II activity inhibited” value in experiment [2] was “about 8%”.
